Assays:
[1] = target: T1, Serine/threonine-protein kinase Chk1 (Homo sapiens) (UniProt O14757); experiment: Residual activity of Serine/threonine-protein kinase Chk1 (CHK1) at 50 uM
T1 sequence (whole entry): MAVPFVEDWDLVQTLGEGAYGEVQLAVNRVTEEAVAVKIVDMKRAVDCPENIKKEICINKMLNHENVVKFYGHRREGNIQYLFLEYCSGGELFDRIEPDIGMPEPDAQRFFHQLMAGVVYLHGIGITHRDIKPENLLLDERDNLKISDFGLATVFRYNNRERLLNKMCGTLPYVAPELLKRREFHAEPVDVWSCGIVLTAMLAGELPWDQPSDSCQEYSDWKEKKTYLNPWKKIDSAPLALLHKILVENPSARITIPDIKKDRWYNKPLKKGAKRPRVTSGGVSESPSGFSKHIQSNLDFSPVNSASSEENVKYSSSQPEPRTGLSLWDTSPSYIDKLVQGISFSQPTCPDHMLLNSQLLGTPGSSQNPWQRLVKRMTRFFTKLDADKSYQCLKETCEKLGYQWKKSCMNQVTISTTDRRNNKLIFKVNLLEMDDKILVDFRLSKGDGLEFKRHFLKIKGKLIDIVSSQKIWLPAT

[2] = target: Protein kinase C alpha type (Homo sapiens) (UniProt P17252); experiment: Residual activity of Protein kinase C alpha (PKCalpha) at 50 uM
[3] = target: T2, AMP-activated protein kinase, AMPK (Homo sapiens) (UniProt P54646+O43741+P54619+Q9UGJ0+Q9Y478+Q13131+Q9UGI9); experiment: Residual activity of AMP-activated Protein Kinase (AMPK) at 50 uM
[4] = target: Glycogen synthase kinase-3 beta (Homo sapiens) (UniProt P49841); experiment: Residual activity of Glycogen synthase kinase-3 beta (GSK3-beta) at 50 uM
Glycogen synthase kinase-3 beta (Homo sapiens), sequence (P49841 whole entry, looked up): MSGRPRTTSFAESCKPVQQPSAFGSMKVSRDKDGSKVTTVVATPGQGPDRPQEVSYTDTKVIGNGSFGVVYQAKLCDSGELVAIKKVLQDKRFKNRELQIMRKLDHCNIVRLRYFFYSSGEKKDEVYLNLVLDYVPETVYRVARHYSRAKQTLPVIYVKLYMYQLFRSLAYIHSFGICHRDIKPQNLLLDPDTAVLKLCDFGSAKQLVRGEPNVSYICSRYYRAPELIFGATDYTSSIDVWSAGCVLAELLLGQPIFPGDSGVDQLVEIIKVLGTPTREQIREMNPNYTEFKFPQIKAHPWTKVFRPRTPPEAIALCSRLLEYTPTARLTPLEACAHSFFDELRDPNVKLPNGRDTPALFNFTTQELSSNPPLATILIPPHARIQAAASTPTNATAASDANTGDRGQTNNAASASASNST

[5] = target: T3, Ribosomal protein S6 kinase beta-1 (Homo sapiens, UniProt P23443); experiment: Inhibition of Ribosomal protein S6 kinase 1 (S6K1)
Target sequence in this assay (P23443 whole entry): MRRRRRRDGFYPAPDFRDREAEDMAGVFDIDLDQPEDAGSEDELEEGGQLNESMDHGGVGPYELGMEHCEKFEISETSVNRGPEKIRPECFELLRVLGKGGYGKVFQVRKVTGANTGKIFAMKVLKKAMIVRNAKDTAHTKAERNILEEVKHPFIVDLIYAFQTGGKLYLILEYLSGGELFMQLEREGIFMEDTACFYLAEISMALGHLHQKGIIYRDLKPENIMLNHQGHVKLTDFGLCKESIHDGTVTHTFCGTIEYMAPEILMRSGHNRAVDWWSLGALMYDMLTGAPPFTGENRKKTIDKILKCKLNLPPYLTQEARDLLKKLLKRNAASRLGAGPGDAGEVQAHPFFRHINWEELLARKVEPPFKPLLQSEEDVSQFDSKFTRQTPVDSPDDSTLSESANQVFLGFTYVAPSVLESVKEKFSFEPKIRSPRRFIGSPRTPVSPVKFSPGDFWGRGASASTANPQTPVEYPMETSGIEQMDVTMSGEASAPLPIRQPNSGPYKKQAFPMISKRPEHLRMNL

[6] = target: Ribosomal protein S6 kinase alpha-5 (Homo sapiens) (UniProt O75582); experiment: Residual activity of MSK-1 kinase (MSK1) at 50 uM
Ribosomal protein S6 kinase alpha-5 (Homo sapiens), sequence (O75582 whole entry, looked up): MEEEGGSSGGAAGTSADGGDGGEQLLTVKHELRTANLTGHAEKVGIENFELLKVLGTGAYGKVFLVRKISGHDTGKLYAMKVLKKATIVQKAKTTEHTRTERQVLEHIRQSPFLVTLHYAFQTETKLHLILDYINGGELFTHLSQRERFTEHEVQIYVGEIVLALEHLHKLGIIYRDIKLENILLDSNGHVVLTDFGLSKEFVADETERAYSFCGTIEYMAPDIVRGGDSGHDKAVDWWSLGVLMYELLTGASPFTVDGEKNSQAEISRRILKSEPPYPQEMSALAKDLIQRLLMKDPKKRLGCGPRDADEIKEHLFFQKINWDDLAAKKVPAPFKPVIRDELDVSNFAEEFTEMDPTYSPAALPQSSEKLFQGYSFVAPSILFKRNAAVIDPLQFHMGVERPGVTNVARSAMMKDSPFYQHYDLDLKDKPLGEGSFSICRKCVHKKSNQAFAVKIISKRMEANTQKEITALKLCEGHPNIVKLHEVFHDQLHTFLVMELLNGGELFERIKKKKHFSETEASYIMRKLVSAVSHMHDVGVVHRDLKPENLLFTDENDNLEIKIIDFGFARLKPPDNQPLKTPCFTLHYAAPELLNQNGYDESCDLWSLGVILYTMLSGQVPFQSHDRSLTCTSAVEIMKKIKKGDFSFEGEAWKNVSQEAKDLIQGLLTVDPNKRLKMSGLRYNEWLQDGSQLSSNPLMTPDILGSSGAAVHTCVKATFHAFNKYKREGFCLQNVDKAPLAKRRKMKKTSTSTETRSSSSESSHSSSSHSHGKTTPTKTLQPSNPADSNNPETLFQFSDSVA

[7] = target: T3, Ribosomal protein S6 kinase beta-1; details: 50 uM
Target sequence in this assay (P23443 whole entry, looked up): as the sequence (P23443 whole entry) above
Description: Inhibition of Ribosomal protein S6 kinase 1 (S6K1) at 50 uM

[8] = target: Ribosomal protein S6 kinase alpha-3 (Homo sapiens) (UniProt P51812); experiment: Residual activity of Ribosomal S6 kinase 2 (RSK2) at 50 uM
Ribosomal protein S6 kinase alpha-3 (Homo sapiens), sequence (P51812 whole entry): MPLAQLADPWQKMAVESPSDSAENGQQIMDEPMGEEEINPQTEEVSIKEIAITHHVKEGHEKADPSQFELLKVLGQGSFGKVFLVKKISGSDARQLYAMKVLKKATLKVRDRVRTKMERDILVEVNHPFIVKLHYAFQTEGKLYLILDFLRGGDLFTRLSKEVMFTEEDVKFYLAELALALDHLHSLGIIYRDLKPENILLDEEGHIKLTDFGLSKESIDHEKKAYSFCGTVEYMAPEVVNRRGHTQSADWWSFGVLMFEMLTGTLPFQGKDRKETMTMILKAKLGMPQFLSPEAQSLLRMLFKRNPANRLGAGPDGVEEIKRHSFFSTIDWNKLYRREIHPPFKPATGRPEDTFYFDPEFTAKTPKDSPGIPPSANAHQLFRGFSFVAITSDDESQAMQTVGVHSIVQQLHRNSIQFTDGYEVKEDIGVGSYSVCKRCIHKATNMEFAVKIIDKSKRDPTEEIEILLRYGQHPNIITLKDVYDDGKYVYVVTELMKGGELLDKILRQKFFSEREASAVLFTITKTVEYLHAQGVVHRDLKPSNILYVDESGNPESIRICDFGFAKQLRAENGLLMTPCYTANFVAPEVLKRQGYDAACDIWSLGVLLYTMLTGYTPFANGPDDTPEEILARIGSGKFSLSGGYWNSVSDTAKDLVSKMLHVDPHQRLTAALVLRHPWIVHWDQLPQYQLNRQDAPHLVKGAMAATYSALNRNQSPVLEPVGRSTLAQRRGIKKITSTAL

[9] = target: T4, Serine/threonine-protein kinase Sgk1 (Homo sapiens) (UniProt O00141); experiment: Residual activity of Serum/glucocorticoid regulated kinase (SGK) at 50 uM
T4 sequence (whole entry): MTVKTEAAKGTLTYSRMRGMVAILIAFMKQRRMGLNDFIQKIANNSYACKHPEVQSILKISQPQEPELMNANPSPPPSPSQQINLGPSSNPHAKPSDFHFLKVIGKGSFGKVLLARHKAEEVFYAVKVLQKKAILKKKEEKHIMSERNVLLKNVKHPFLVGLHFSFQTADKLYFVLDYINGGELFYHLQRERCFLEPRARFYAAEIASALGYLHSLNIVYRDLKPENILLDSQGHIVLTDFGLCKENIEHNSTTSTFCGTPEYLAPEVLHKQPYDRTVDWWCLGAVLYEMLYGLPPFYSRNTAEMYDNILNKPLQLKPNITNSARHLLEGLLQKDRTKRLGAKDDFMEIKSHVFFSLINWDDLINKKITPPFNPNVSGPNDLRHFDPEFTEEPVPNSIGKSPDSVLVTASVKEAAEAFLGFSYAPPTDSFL

[10] = target: Ribosomal protein S6 kinase alpha-3 (Homo sapiens) (UniProt P51812); experiment: Residual activity of Ribosomal S6 kinase 2 (RSK2) at 1 uM
[11] = target: T2, AMP-activated protein kinase, AMPK (Homo sapiens); experiment: Residual activity of AMP-activated Protein Kinase (AMPK) at 1 uM

Row | residual activity [1] [%] | residual activity [2] [%] | residual activity [3] [%] | residual activity [4] [%] | IC50 [5] [µM] | residual activity [6] [%] | residual activity [7] [%] | residual activity [8] [%] | residual activity [9] [%] | residual activity [10] [%] | residual activity [11] [%] | Compound
1 | 93 | 66 | 88 | 94 | 25 | 90 | 28 | 106 | 109 | – | – | CN1C(=O)C(c2c[nH]c3ccccc23)=C(c2cn(CCCN)c3ccccc23)C1=O
2 | – | – | – | – | – | – | – | – | – | 9 | 54 | CN(C)CCCn1cc(C2=C(c3c[nH]c4ccccc34)C(=O)NC2=O)c2ccccc21
